Key:
[1] = system: Human adenocarcinoma cell line LoVo; test: Cell based screen for inhibitors of Raf kinase, quantitative assay; details: 96 h, four days incubation
Method: (§1) • Cell Lines: Human adenocarcinoma cell line LoVo which is known to be growth inhibited by low nM concentrations of a reference standard inhibitor of Ras and human adenocarcinoma cell line CaCo-2, which is known to be growth resistant to the same reference compound. • Cell Media : RPMI 1640 with 10% Fetal Bovine Serum supplemented with L-glutamine and Pennicilin/Streptomycin. • Compounds: Supplied usually as a 10 mM stock in 100% DMSO. • Normal Saline: 150 mM NaCl • Trichloroacetic Acid (TCA): 50% (w/v) in water • Sulforhodamine B (SRB): 0.4% (w/v) in 1% Acetic Acid • Tris Base: 10 mM in water
(§2) Cells are plated at 2000 cells per well for cell line LoVo and 1500 cells for cell line CaCo-2 in 96 well plates. Cells are plated in media (200 µl) and allowed to adhere overnight at 37°C. At 24 hours post plating, compounds are added directly at a volume of 0.5 µl. For the qualitative screen (compounds screened at 25 µM) compound is added directly to cells. For the quantitative screen, compound is first diluted in DMSO to generate concentrations of compound or reference standard of: 1, 5, 10 and 25 µM. It is advisable to make the dilutions in an identical 96 well plate so that compounds can be added using a multichannel micropipettor set at 0.5 µl. The cells are then incubated for four days after which the media is removed using a 12 well manifold by first tipping the plate forward at a 45 degree angle and then inserting the manifold in an upright orientation to prevent the tips of the manifold from disturbing cells at the bottom of the plate. 200 µl of normal saline is then added to each well using an 8 well multichannel pipettor, followed by the careful addition of 50 µl of 50% TCA. The plates are then incubated for 2 hours at 4°C, after which the supernatant is removed using the same technique as above and the plated washed twice with 200 µl water. The plates are then air dried and 50 µl of SRB stock solution is carefully added so that the entire bottom of each well is covered. This again can be used using an 8 well multichannel pipettor. The SRB is incubated with fixed cells for 15 minutes at room temperature after which the SRB is removed with the manifold as described above and the plates washed twice with 350 µl of 1% acetic acid per well each time. The plates are then air dried after which the bound SRB is released from protein by the addition of 200 µl of Tris base. Resolubilizing the SRB is aided by placing the plates on a rotator for 15-30 minutes. The absorbance of each well is determined at 550 or 562 nm using a microtiter plate reader.
(§3) Each compound or dilution thereof is performed in triplicate. Outliers are identified by visual inspection of the data. Each plate should have a "0" control (vehicle only).
(§4) Quantitative Assay: A standard curve is constructed by plotting the concentration of compound against the average absorbance calculated at that concentration. […] Multiple entries for a given compound indicate that it is tested multiple times.

[2] = system: human adenocarcinoma cell line CaCo-2; test: as above; details: Caco-2, 96 h, four days incubation
Method: as §1, §2, §3, §4

Raf-1 (c-Raf) = target: T1, Raf-1 (c-Raf) (Homo sapiens, UniProt P04049); test: Raf1 kinase cascade assay procedure; format: biochemical
T1 construct: Sf9 insect cell lysate containing full length 6his-tagged recombinant human c-Raf; host or cells: c-Raf: Sf9 insect cell lysate; MEK1 and MAPK: E. coli
Method: (Specific Activity: ~200U/ml). Human Non-active Mek-1-GST and human GST-MAP kinase (recombinant proteins produced in E. coli).
• 1. Assay Dilution Buffer (ADB): 20mM MOPS, pH 7.2, 25mM β-glycerol phosphate, 5mM EGTA, 1mM sodium orthovanadate, 1mM dithiothreitol. • 2. Magnesium/ATP Cocktail: 500µM cold ATP and 75 mM magnesium chloride in ADB. • 4. Active Kinase: Human Active c-Raf: Use at 0.4U per assay point • 5. Non-active GST-MEK1: Use at 0.1µg per assay point. • 6. Non-active GST-p42 MAP Kinase: Use at 1.0 µg per assay point
• 1. TBST - Tris (50 mM, pH 7.5), NaCl (150 mM), Tween-20 (0.05 %) • 2. Superblock (Pierce) • 3. Anti-GST Ab (Pharmacia) • 4. Anti-Phospho MAPK (Sigma) • 5. Anti-Mouse Ab / Europium conjugate (Wallac)
First Stage: c-Raf Dependent Activation of GST-MEK and GST-MAPK • 1. Add […] of ADB per assay (i.e. per well of a 96 well plate) • 2. Add 10 ml of 0.5 mM cold ATP and 75 mM magnesium chloride in ADB. • 3. Add 2 ml of c-Raf (0.4U/assay), in conjunction with 1.6ml non-active MEK1 ([…]). • 4. Add 4 ml of non-active GST-p42 MAP Kinase (1.0 mg/assay). • 5. Incubate for 60 minutes at 30°C in a shaking incubator. • 6. Transfer this mixture to an anti-GST Ab coated 96 well plate (Nunc Immunosorb plates coated o/n with a-GST, then blocked with Pierce Superblock). • 7. Incubate for 60 minutes at 30°C in a shaking incubator Wash 3X with TBST, add Anti-Phospho MAPK (Sigma) (1:3000) • 6. Incubate for 60 minutes at 30°C in a shaking incubator • 7. Wash 3X with TBST, add Anti-Mouse Ab / Europium conjugate (Wallac) (1:500) • 8. Incubate for 60 minutes at 30°C in a shaking incubator • 9. Wash 3X with TBST, Read plates in Wallac Victor model Plate Reader. • 10. Collect data analyze in Excel for single point and IC50 determinations.
Typically Raf-1 assay is run at compound concentrations from 10 µM to 1 nM in half log dilutions. (% inhibition is determined for each compound concentration).

[3] = target: T2, EGF-R Kinase (recombinant enzyme) (Homo sapiens, UniProt P00533); test: Inhibition of Epidermal Growth Factor Receptor Kinase (EGF-R) using recombinant enzyme; format: biochemical; details: RR-SRC peptide substrate, (a) = average of two tests
T2 construct: EGFR cDNA encoding amino acids 645 - 1186 preceded by Met-Ala-(His)6; made in house; host or cells: Sf9 insect cells, recombinant baculovirus vHcEGFR52
Method: Representative test compounds are evaluated in a standard pharmacological test procedure to measure their ability to inhibit the phosphorylation of the tyrosine residue of a peptide substrate catalyzed by the enzyme epidermal growth factor receptor kinase. […] The enzyme used in this assay is the His-tagged cytoplasmic domain of EGFR. […] Sf9 cells in 100 mm plates are infected at a multiplicity of infection of 10 pfu/cell and cells are harvested 48 h post infection. A cytoplasmic extract is prepared using 1% Triton X-100 and applied to Ni-NTA column. After washing the column with 20 mM imidazole, HcEGFR is eluted with 250 mM imidazole (in 50 mM Na2HPO4, pH 8.0, 300 mM NaCl). Fractions collected are dialyzed against 10 mM HEPES, pH 7.0, 50 mM NaCl, 10% glycerol, 1ug/mL antipain and leupeptin and 0.1 mM Pefabloc SC. The protein is frozen in dry ice/methanol and stored -70°C.
Test compounds are made into 10 mg/mL stock solutions in 100% dimethylsulfoxide (DMSO). Prior to experiment, stock solutions are diluted to 500 uM with 100% DMSO and then serially diluted to the desired concentration with HEPES buffer (30 mM HEPES pH 7.4).
For the enzyme reaction, 10 uL of each inhibitor (at various concentrations) are added to each well of a 96-well plate. To this is added 3 uL of enzyme (1:10 dilution in 10mM HEPES, pH 7.4 for final conc. of 1:120). This is allowed to sit for 10 min on ice and is followed by the addition of 5 ul peptide (80 uM final conc.), 10ul of 4X Buffer containing 50 mM HEPES (pH 7.4), 200 mM Na3VO4, 40mM MnCl2, 80 uM ATP, 0.25 uL ^33P-ATP (>2500 Ci/mmol; Amersham) and 12 uL H2O. The reaction is allowed to run for 90 min at room temperature and is followed by spotting the entire volume onto precut P81 filter papers. The filter discs are washed 2X with 0.5% phosphoric acid and radioactivity is measured using a liquid scintillation counter.
The % inhibition of the test compound is determined for at least three different concentrations and the IC50 value is evaluated from the dose response curve. […] CPM(control) is in units of counts per minute and is a number expressing the amount of radiolabled ATP (γ-^33P) incorporated into the RR-SRC peptide substrate by the enzyme after 90 minutes at room temperature in the absence of test compound as measured by liquid scintillation counting. The CPM values are corrected for the background counts produced by ATP in the absence of the enzymatic reaction.

T1 sequence (P04049 whole entry): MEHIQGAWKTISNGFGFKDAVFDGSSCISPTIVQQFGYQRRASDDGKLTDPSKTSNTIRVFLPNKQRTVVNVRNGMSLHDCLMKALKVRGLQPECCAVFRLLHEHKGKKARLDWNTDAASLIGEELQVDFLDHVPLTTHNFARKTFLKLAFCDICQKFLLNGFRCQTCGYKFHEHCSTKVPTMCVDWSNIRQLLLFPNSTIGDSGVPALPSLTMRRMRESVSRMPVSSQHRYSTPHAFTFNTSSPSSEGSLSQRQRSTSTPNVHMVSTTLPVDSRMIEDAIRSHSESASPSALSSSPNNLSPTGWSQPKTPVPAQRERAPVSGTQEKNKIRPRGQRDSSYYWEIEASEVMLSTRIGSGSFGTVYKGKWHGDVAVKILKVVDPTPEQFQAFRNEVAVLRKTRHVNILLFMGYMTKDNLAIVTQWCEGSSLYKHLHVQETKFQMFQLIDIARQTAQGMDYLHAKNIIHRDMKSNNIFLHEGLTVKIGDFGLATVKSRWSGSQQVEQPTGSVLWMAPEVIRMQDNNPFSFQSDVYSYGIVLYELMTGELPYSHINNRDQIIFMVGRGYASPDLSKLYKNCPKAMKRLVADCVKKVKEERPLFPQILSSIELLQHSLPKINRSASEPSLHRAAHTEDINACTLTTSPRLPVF
T2 sequence (P00533 669-1210): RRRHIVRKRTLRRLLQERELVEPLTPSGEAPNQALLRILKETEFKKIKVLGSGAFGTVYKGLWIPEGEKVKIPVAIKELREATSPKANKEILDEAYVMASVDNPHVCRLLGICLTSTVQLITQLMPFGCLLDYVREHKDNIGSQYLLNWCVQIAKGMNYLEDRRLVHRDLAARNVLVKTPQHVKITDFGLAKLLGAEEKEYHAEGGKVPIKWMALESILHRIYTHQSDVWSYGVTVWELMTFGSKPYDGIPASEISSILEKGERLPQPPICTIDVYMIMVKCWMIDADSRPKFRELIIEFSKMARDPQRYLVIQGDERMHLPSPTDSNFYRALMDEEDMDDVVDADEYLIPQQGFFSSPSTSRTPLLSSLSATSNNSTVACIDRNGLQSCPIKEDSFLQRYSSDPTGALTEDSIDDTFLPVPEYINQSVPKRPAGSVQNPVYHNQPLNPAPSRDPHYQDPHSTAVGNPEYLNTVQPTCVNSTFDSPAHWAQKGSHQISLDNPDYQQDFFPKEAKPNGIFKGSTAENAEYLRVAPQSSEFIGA

Work on COc1cc2cc3c(Nc4ccc(Sc5nccn5C)c(Cl)c4)c(C#N)cnc3nc2cc1OCCCl [Example 174, 8-(2-Chloroethoxy)-4-{3-chloro-4-[(1-methyl-1H-imidazol-2-yl)sulfanyl]anilino}-7-methoxybenzo[b][1,8]naphthyridine-3-carbonitrile] yielded an IC50 [1] of 440 nM, an IC50 [2] of 4000 nM and an IC50 (Raf-1 (c-Raf)) greater than 10000 nM.

With COc1cc2cc3ncc(C#N)c(Nc4ccc(OCc5ccccc5)c(Cl)c4)c3cc2cc1OCCN1CCOCC1 [Example 217, 4-(4-Benzyloxy-3-chlorophenylamino)-8-methoxy-7-(2-morpholin-4-yl-ethoxy)benzo[g]quinoline-3-carbonitrile] the IC50 [1] was 480 nM, the IC50 [2] was 4800 nM and the IC50 (Raf-1 (c-Raf)) was greater than 10000 nM.

With COc1cc2cc3c(Nc4ccc(Sc5nccn5C)c(Cl)c4)c(C#N)cnc3nc2cc1OCCN1CCOCC1 [Example 176, 4-{3-Chloro-4-[(1-methyl-1H-imidazol-2-yl)sulfanyl]anilino}-7-methoxy-8-[2-(4-morpholinyl)ethoxy]benzo[b][1,8]naphthyridine-3-carbonitrile] the IC50 [1] was 3500 nM, the IC50 [2] was 10000 nM and the IC50 (Raf-1 (c-Raf)) was 3000 nM.

For COc1cc(Nc2c(C#N)cnc3cc4cc(OCCN5CCOCC5)c(OC)cc4cc23)c(C)cc1Cl [Example 124, 4-(4-chloro-5-methoxy-2-methylanilino)-7-methoxy-8-[2-(4-morpholinyl)ethoxy]benzo[g]quinoline-3-carbonitrile], the IC50 [3] was 3000 nM and the IC50 (Raf-1 (c-Raf)) was 130 nM.

With COc1cc(Nc2c(C#N)cnc3cc4cc(OCCN5CCOCC5)c(OC)cc4cc23)c(Cl)cc1C [Example 216, 4-(2-Chloro-5-methoxy-4-methylphenylamino)-7-methoxy-8-(2-morpholin-4-yl-ethoxy)benzo[g]quinoline-3-carbonitrile] the IC50 [3] was 290 nM.

COc1cc2cc3c(Nc4ccc(F)c(Cl)c4)c(C#N)cnc3cc2cc1OCCN1CCOCC1 [Example 205, 4-(3-Chloro-4-fluoroanilino)-7-methoxy-8-[2-(4-morpholinyl)ethoxy]benzo[g]quinoline-3-carbonitrile] gave an IC50 [3] of 250 nM.

COc1cc2cc3ncc(C#N)c(Nc4ccc(Oc5ccccc5)c(Cl)c4)c3cc2cc1OCCN1CCOCC1 [Example 214, 4-(3-Chloro-4-phenoxyphenylamino)-8-methoxy-7-(2-morpholin-4-yl-ethoxy)benzo[g]quinoline-3-carbonitrile] showed an IC50 [1] of 250 nM, an IC50 [2] of 8000 nM and an IC50 (Raf-1 (c-Raf)) of 310 nM.

N#Cc1cnc2c(c1Nc1ccc(Oc3ccccc3)cc1)C=C1N=CN=C1C2 [Example 44, 8-(4-Phenoxyanilino)imidazo[4,5-g]quinoline-7-carbonitrile] was tested, and the IC50 [1] was 850 nM, the IC50 [2] was 9200 nM and the IC50 (Raf-1 (c-Raf)) was 9 nM.

COc1cc2cc3c(Nc4ccc(Oc5ccccc5)c(Cl)c4)c(C#N)cnc3cc2cc1OCCN1CCOCC1 [Example 213, 4-(3-Chloro-4-phenoxyphenylamino)-7-methoxy-8-(2-morpholin-4-yl-ethoxy)benzo[g]quinoline-3-carbonitrile] showed an IC50 [1] of 300 nM, an IC50 [2] of 1400 nM and an IC50 (Raf-1 (c-Raf)) of 27 nM.

Reference: patent EP1242382B1, “TRICYCLIC PROTEIN KINASE INHIBITORS” (Wyeth, priority 1999, dated 2001)
